From US20240101540A1, “TARGETED PROTEIN DEGRADATION OF PARP14 FOR USE IN THERAPY” (Ribon Therapeutics, Inc., priority 2022, published 2024)
Counter-ions that a name gives are not always drawn.

Biological target: T1, HiBiT tagged PARP14 (Homo sapiens, UniProt Q460N5)
T1 construct: engineered to contain a HiBiT tag on both alleles of the PARP14 gene; endogenous in cells; host or cells: Jurkat cells stably transfected with LgBiT (Promega), PARP14 locus edited by CRISPR/Cas9
Assay: HiBiT assay for the degradation of PARP14 (HiBiT tagged PARP14 in LgBiT expressing Jurkat cells, 2 or 24 hours)
Assay type: cell-based
Conditions: Assay B (Example B): HiBiT tagged PARP14 degradation in LgBiT expressing Jurkat cells, read-out: DC50
Summary of the method: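 Jurkat cells stably expressing LgBiT with CRISPR knock-in of C-terminal HiBiT on both PARP14 alleles, 5,000 cells/well, treated with compound dose-response at 37 °C for 2 or 24 h. Live Cell Substrate luminescence normalised to 0.1% DMSO wells; DC50 from 4-parameter fit with floating top, bottom, Hill.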

T1 sequence (Q460N5 whole entry): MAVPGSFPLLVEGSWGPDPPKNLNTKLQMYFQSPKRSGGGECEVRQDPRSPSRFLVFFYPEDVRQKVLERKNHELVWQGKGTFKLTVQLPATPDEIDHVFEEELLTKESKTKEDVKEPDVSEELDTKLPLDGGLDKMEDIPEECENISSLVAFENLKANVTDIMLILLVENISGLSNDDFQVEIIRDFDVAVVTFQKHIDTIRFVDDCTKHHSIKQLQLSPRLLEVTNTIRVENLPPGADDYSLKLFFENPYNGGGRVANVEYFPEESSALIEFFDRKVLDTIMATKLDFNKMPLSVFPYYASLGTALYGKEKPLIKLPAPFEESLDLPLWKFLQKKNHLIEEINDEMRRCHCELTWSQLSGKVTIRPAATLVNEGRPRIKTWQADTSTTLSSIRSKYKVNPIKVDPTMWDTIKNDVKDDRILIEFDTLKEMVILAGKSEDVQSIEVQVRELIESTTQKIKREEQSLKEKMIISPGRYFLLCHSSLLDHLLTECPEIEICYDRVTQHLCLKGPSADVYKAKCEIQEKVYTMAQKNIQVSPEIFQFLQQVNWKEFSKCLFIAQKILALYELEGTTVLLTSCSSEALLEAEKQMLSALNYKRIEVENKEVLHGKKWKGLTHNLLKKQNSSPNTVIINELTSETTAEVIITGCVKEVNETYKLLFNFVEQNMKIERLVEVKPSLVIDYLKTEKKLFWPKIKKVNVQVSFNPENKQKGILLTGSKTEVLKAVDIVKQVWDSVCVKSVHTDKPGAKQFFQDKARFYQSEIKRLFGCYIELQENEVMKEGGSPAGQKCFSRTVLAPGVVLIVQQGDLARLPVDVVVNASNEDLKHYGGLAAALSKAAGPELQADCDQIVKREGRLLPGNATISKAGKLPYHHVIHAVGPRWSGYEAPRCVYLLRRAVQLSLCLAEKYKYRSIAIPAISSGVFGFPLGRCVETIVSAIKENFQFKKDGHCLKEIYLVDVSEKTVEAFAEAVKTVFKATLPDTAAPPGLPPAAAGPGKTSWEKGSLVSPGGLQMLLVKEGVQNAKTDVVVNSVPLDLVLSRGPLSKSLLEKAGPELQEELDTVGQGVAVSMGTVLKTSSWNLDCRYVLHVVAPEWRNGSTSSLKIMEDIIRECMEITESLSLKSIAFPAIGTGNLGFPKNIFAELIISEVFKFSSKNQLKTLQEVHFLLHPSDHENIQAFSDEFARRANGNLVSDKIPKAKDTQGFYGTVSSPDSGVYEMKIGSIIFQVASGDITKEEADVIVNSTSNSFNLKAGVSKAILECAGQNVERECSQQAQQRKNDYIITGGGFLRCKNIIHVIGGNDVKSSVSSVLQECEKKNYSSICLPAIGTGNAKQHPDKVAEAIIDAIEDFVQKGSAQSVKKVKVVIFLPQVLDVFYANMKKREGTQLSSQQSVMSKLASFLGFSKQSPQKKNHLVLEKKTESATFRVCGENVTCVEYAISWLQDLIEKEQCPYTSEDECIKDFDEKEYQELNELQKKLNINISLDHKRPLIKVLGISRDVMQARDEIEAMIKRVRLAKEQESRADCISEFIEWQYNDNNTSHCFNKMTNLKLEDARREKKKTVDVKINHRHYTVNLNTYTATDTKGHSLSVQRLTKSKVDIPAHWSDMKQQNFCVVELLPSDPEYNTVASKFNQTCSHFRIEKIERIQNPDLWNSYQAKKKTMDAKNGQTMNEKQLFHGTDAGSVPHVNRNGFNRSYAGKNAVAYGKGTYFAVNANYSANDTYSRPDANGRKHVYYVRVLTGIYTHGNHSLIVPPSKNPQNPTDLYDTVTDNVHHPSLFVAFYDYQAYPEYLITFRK

With O=C1CCC(Nc2ccc(N3CCC(N4CC(N5CCC(COc6cc(F)c7c(=O)[nH]c(CSC8CCOCC8)nc7c6)CC5)C4)CC3)c(F)c2)C(=O)N1 (single isomer, unassigned) [Example 116b, 3-((3-fluoro-4-(4-(3-(4-(((5-fluoro-4-oxo-2-(((tetrahydro-2H-pyran-4-yl)thio)methyl)-3,4-dihydroquinazolin-7-yl)oxy)methyl)piperidin-1-yl)azetidin-1-yl)piperidin-1-yl)phenyl)amino)piperidine-2,6-dione] the DC50 was less than 30 nM.
In the case of CN(C(=O)C1CCN(CCN2CCC(COc3cc(F)c4c(=O)[nH]c(COC5CCOCC5)nc4c3)CC2)CC1)c1ccc(NC2CCC(=O)NC2=O)cc1F (centres unmarked) [Example 202, N-(4-((2,6-dioxopiperidin-3-yl)amino)-2-fluorophenyl)-1-(2-(4-(((5-fluoro-4-oxo-2-(((tetrahydro-2H-pyran-4-yl)oxy)methyl)-3,4-dihydroquinazolin-7-yl)oxy)methyl)piperidin-1-yl)ethyl)-N-methylpiperidine-4-carboxamide], the DC50 is reported as less than 30 nM.
With O=C1CCC(Nc2ccc(N3CCC(N4CC(N5CCC(COc6cc(F)c7c(=O)[nH]c(CSC8CCOCC8)nc7c6)CC5)C4)CC3)cc2F)C(=O)N1 (centres unmarked) [Example 221, 3-((2-fluoro-4-(4-(3-(4-(((5-fluoro-4-oxo-2-(((tetrahydro-2H-pyran-4-yl)thio)methyl)-3,4-dihydroquinazolin-7-yl)oxy)methyl)piperidin-1-yl)azetidin-1-yl)piperidin-1-yl)phenyl)amino)piperidine-2,6-dione formate] the DC50 was less than 30 nM.
In the case of Cn1nc(N2CCC(=O)NC2=O)c2ccc(N3CCC(N4CCC(COc5cc(F)c6c(=O)[nH]c(CSC7CCOCC7)nc6c5)CC4)CC3)cc21 [Example 155, 1-(6-(4-(((5-fluoro-4-oxo-2-(((tetrahydro-2H-pyran-4-yl)thio)methyl)-3,4-dihydroquinazolin-7-yl)oxy)methyl)-[1,4′-bipiperidin]-1′-yl)-1-methyl-1H-indazol-3-yl)dihydropyrimidine-2,4(1H,3H)-dione], the DC50 is reported as less than 30 nM.
Cn1nc(N2CCC(=O)NC2=O)c2cc(F)c(N3CCC(CN4CCC(COc5cc(F)c6c(=O)[nH]c(CSC7CCOCC7)nc6c5)CC4)CC3)cc21 [Example 182, 1-(5-fluoro-6-(4-((4-(((5-fluoro-4-oxo-2-(((tetrahydro-2H-pyran-4-yl)thio)methyl)-3,4-dihydroquinazolin-7-yl)oxy)methyl)piperidin-1-yl)methyl)piperidin-1-yl)-1-methyl-1H-indazol-3-yl)dihydropyrimidine-2,4(1H,3H)-dione] gave a DC50 of less than 30 nM.
Cn1nc(N2CCC(=O)NC2=O)c2cccc(N3CCN(CCN4CCC(COc5cc(F)c6c(=O)[nH]c(CSC7CCOCC7)nc6c5)CC4)CC3)c21 [Example 101, 1-(7-(4-(2-(4-(((5-fluoro-4-oxo-2-(((tetrahydro-2H-pyran-4-yl)thio)methyl)-3,4-dihydroquinazolin-7-yl)oxy)methyl)piperidin-1-yl)ethyl)piperazin-1-yl)-1-methyl-1H-indazol-3-yl)dihydropyrimidine-2,4(1H,3H)-dione] showed a DC50 of less than 30 nM.
For O=C1CCC(Nc2ccc(N3CCC4(CC3)CC(N3CCC(COc5cc(F)c6c(=O)[nH]c(CSC7CCOCC7)nc6c5)CC3)C4)c(F)c2)C(=O)N1 (centres unmarked) [Example 143, 3-((3-fluoro-4-(2-(4-(((5-fluoro-4-oxo-2-(((tetrahydro-2H-pyran-4-yl)thio)methyl)-3,4-dihydroquinazolin-7-yl)oxy)methyl)piperidin-1-yl)-7-azaspiro[3.5]nonan-7-yl)phenyl)amino)piperidine-2,6-dione], the DC50 was less than 30 nM.
O=C1CCC(Nc2ccc(OC3CCN(CCN4CCC(COc5cc(F)c6c(=O)[nH]c(CSC7CCOCC7)nc6c5)CC4)CC3)cc2)C(=O)N1 (centres unmarked) [Example 120, 3-((4-((1-(2-(4-(((5-fluoro-4-oxo-2-(((tetrahydro-2H-pyran-4-yl)thio)methyl)-3,4-dihydroquinazolin-7-yl)oxy)methyl)piperidin-1-yl)ethyl)piperidin-4-yl)oxy)phenyl)amino)piperidine-2,6-dione] showed a DC50 of less than 30 nM.
Compound O=C1CCC(Nc2ccc(N3CCN(CCN4CCC(COc5cc(F)c6c(=O)[nH]c(CC7CCC7)nc6c5)CC4)CC3)c(F)c2)C(=O)N1 (centres unmarked) [Example 106, 3-((4-(4-(2-(4-(((2-(cyclobutylmethyl)-5-fluoro-4-oxo-3,4-dihydroquinazolin-7-yl)oxy)methyl)piperidin-1-yl)ethyl)piperazin-1-yl)-3-fluorophenyl)amino)piperidine-2,6-dione formate] has a DC50 of less than 30 nM.
With O=C1CCC(Nc2ccc(-c3ccc(CCN4CCC(COc5cc(F)c6c(=O)[nH]c(CSC7CCOCC7)nc6c5)CC4)nc3)cc2)C(=O)N1 (centres unmarked) [Example 133] the DC50 was less than 30 nM.
With O=C1CCN(c2ccc(N3CCN(CCN4CCC(COc5cc(F)c6c(=O)[nH]c(COC7CCOCC7)nc6c5)CC4)CC3)c(F)c2)C(=O)N1 [Example 197, 1-(3-fluoro-4-(4-(2-(4-(((5-fluoro-4-oxo-2-(((tetrahydro-2H-pyran-4-yl)oxy)methyl)-3,4-dihydroquinazolin-7-yl)oxy)methyl)piperidin-1-yl)ethyl)piperazin-1-yl)phenyl)dihydropyrimidine-2,4(1H,3H)-dione] the DC50 was less than 30 nM.
In the case of [2H]C1([2H])N(CCN2CCC(COc3cc(F)c4c(=O)[nH]c(CSC5CCOCC5)nc4c3)CC2)C([2H])([2H])C([2H])([2H])N(c2ccc(NC3CCC(=O)NC3=O)cc2)C1([2H])[2H] (centres unmarked) [Example 131, 3-((4-(4-(2-(4-(((5-fluoro-4-oxo-2-(((tetrahydro-2H-pyran-4-yl)thio)methyl)-3,4-dihydroquinazolin-7-yl)oxy)methyl)piperidin-1-yl)ethyl)piperazin-1-yl-2,2,3,3,5,5,6,6-d8)phenyl)amino)piperidine-2,6-dione], the DC50 is reported as less than 30 nM.
In the case of O=C1CCC(Nc2ccc(N3CCC(N4CC(N5CCC(COc6cc(F)c7c(=O)[nH]c(CSC8CCOCC8)nc7c6)CC5)C4)CC3)c(C(F)(F)F)c2)C(=O)N1 (centres unmarked) [Example 230, 3-((4-(4-(3-(4-(((5-fluoro-4-oxo-2-(((tetrahydro-2H-pyran-4-yl)thio)methyl)-3,4-dihydroquinazolin-7-yl)oxy)methyl)piperidin-1-yl)azetidin-1-yl)piperidin-1-yl)-3-(trifluoromethyl)phenyl)amino)piperidine-2,6-dione], the DC50 is reported as less than 30 nM.
Compound O=C1CCC(Nc2ccc(N3CCN(CCN4CCC(COc5ccc6c(=O)[nH]c(CSC7CCOCC7)nc6c5)CC4)CC3)c(F)c2)C(=O)N1 (centres unmarked) [Example 206, 3-((3-fluoro-4-(4-(2-(4-(((4-oxo-2-(((tetrahydro-2H-pyran-4-yl)thio)methyl)-3,4-dihydroquinazolin-7-yl)oxy)methyl)piperidin-1-yl)ethyl)piperazin-1-yl)phenyl)amino)piperidine-2,6-dione] has a DC50 of less than 30 nM.
For O=C1CCC(Nc2ccc(N3CCC(CCN4CCC(COc5cc(F)c6c(=O)[nH]c(CSC7CCOCC7)nc6c5)CC4)CC3)cc2)C(=O)N1 (centres unmarked) [Example 118, 3-((4-(4-(2-(4-(((5-fluoro-4-oxo-2-(((tetrahydro-2H-pyran-4-yl)thio)methyl)-3,4-dihydroquinazolin-7-yl)oxy)methyl)piperidin-1-yl)ethyl)piperidin-1-yl)phenyl)amino)piperidine-2,6-dione], the DC50 was less than 30 nM.
With Cn1nc(N2CCC(=O)NC2=O)c2ccc(N3CCC(N4CC(N5CCC(COc6cc(F)c7c(=O)[nH]c(CSC8CCOCC8)nc7c6)CC5)C4)CC3)cc21 [Example 161, 1-(6-(4-(3-(4-(((5-fluoro-4-oxo-2-(((tetrahydro-2H-pyran-4-yl)thio)methyl)-3,4-dihydroquinazolin-7-yl)oxy)methyl)piperidin-1-yl)azetidin-1-yl)piperidin-1-yl)-1-methyl-1H-indazol-3-yl)dihydropyrimidine-2,4(1H,3H)-dione] the DC50 was less than 30 nM.
Work on O=C1CCN(c2cnc3cc(N4CCC(N5CC(N6CCC(COc7cc(F)c8c(=O)[nH]c(COC9CCOCC9)nc8c7)CC6)C5)CC4)ccn23)C(=O)N1 [Example 168, 1-(7-(4-(3-(4-(((5-fluoro-4-oxo-2-(((tetrahydro-2H-pyran-4-yl)oxy)methyl)-3,4-dihydroquinazolin-7-yl)oxy)methyl)piperidin-1-yl)azetidin-1-yl)piperidin-1-yl)imidazo[1,2-a]pyridin-3-yl)dihydropyrimidine-2,4(1H,3H)-dione] yielded a DC50 of less than 30 nM.
With O=C1CCC(NC(=O)c2ccc(N3CCC(N4CCC(COc5cc(F)c6c(=O)[nH]c(CSC7CCOCC7)nc6c5)CC4)CC3)cc2F)C(=O)N1 (centres unmarked) [Example 149, N-(2,6-dioxopiperidin-3-yl)-2-fluoro-4-(4-(((5-fluoro-4-oxo-2-(((tetrahydro-2H-pyran-4-yl)thio)methyl)-3,4-dihydroquinazolin-7-yl)oxy)methyl)-[1,4′-bipiperidin]-1′-yl)benzamide] the DC50 was less than 30 nM.
O=C1CCC(Nc2ccc(N3CCC(N4CC(N5CCC(COc6cc(F)c7c(=O)[nH]c(COC8CCOCC8)nc7c6)CC5)C4)CC3)c(F)c2)C(=O)N1 (single isomer, unassigned) [Example 136b, 3-((3-fluoro-4-(4-(3-(4-(((5-fluoro-4-oxo-2-(((tetrahydro-2H-pyran-4-yl)oxy)methyl)-3,4-dihydroquinazolin-7-yl)oxy)methyl)piperidin-1-yl)azetidin-1-yl)piperidin-1-yl)phenyl)amino)piperidine-2,6-dione] was tested, and the DC50 was less than 30 nM.
Compound O=C1CCC(Nc2cc(F)c(N3CCN(CCN4CCC(COc5cc(F)c6c(=O)[nH]c(CSC7CCOCC7)nc6c5)CC4)CC3)c(F)c2)C(=O)N1 (centres unmarked) [Example 98, 3-((3,5-difluoro-4-(4-(2-(4-(((5-fluoro-4-oxo-2-(((tetrahydro-2H-pyran-4-yl)thio)methyl)-3,4-dihydroquinazolin-7-yl)oxy)methyl)piperidin-1-yl)ethyl)piperazin-1-yl)phenyl)amino)piperidine-2,6-dione formate] has a DC50 of less than 30 nM.
